Assay results from patent US8232288B2, “Substituted benzimidazoles, benzothiazoles and benzoxazoles” (Gruenenthal GmbH, priority 2009, dated 2012).

What was measured:
[1] = molecular target: T1, human B1R receptor (hB1R) (Homo sapiens, UniProt P46663); assay: Functional investigation on the bradykinin receptor 1 (B1R), FLIPR Ca2+ assay, hB1R cells; type: cell-based
T1 construct: expressed in transfected cells; host or cells: CHO K1 cells
T1 sequence (P46663 1-353): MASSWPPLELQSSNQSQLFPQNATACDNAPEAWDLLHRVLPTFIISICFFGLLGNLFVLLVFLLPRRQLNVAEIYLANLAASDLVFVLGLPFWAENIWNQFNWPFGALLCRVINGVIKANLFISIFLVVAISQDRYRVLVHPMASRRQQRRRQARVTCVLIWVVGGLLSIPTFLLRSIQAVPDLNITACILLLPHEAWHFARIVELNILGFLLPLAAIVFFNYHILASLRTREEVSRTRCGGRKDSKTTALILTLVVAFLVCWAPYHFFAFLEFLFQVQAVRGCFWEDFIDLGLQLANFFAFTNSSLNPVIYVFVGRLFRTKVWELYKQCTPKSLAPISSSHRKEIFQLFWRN
Method: (§1) The agonistic or antagonistic action of substances can be quantified on the bradykinin receptor 1 (B1R) of the human and rat species with ectopically expressing cell lines (CHO K1 cells) and with the aid of a Ca^2+-sensitive dyestuff (Fluo-4) in a fluorescent imaging plate reader (FLIPR). The figure in % activation is based on the Ca^2+ signal after addition of Lys-Des-Arg^9-bradykinin (0.5 nM) or Des-Arg^9-bradykinin (100 nM). Antagonists lead to a suppression of the Ca^2+ inflow after addition of the agonist. % inhibition compared with the maximum achievable inhibition is stated.
(§2) The agonistic or antagonistic action of substances can be determined on the bradykinin receptor 1 (B1R) of the human and rat species with the following assay. In accordance with this assay, the Ca^2+ inflow through the channel is quantified with the aid of a Ca^2+-sensitive dyestuff (type Fluo-4, Molecular Probes Europe BV, Leiden Holland) in a fluorescent imaging plate reader (FLIPR, Molecular Devices, Sunnyvale, USA).
(§3) Chinese hamster ovary cells (CHO K1 cells) transfected stably with the human B1R gene (hB1R cells) or the B1R gene of the rat (rB1R cells) are used. For functional studies, these cells are plated out on black 96-well plates with a clear base (BD Biosciences, Heidelberg, Germany or Greiner, Frickenhausen, Germany) in a density of 20,000-35,000 cells/well. The cells are left overnight at 37° C. and 5% CO2 in culture medium (hB1R cells: Nutrient Mixture Ham's F12, Gibco Invitrogen GmbH, Karlsruhe, Germany or DMEM, Sigma-Aldrich, Taufkirchen, Germany; rB1R cells: D-MEM/F12, Gibco Invitrogen GmbH, Karlsruhe, Germany) with 10 vol. % FBS (foetal bovine serum, Gibco Invitrogen GmbH, Karlsruhe, Germany or PAN Biotech GmbH, Aidenbach, Germany). On the following day, the cells are loaded for 60 min at 37° C. with 2.13 μM Fluo-4 (Molecular Probes Europe BV, Leiden Holland) in HBSS buffer (Hank's buffered saline solution, Gibco Invitrogen GmbH, Karlsruhe, Germany) with 2.5 mM probenecid (Sigma-Aldrich, Taufkirchen, Germany) and 10 mM HEPES (Sigma-Aldrich, Taufkirchen, Germany). The plates are then washed 2× with HBSS buffer, and HBSS buffer which additionally contains 0.1% BSA (bovine serum albumin; Sigma-Aldrich, Taufkirchen, Germany), 5.6 mM glucose and 0.05% gelatine (Merck KGaA, Darmstadt, Germany) is added. After a further incubation of 20 minutes at room temperature, the plates are inserted into the FLIPR for the Ca^2+ measurement.
(§4) Alternatively, the plates are washed with buffer A (15 mM HEPES, 80 mM NaCl, 5 mM KCl, 1.2 mM CaCl2, 0.7 mM MgSO4, 2 g/l glucose, 2.5 mM probenecid), buffer A is added and the plates are loaded with 2.5 μM Fluo-4 and 0.025% Pluronic F127 (Sigma-Aldrich, Taufkirchen, Germany). Thereafter, the cells are washed 2× with buffer A and incubated for 30 minutes at room temperature with buffer A, which additionally contains 0.05% BSA and 0.05% gelatine, and thereafter inserted into the FLIPR for the Ca^2+ measurement.
(§5) The Ca^2+-dependent fluorescence is measured here before and after addition of substances (λex=488 nm, λem=540 nm). Quantification is by measurement of the highest fluorescence intensity (FC, fluorescence counts) over time.
(§6) The FLIPR protocol consists of 2 additions of substance. Test substances (10 μM) are first pipetted on to the cells and the Ca^2+ inflow is compared with the control (hB1R: Lys-Des-Arg^9-bradykinin>=50 nM; rB1R: Des-Arg^9-bradykinin 10 μM). This gives the result in % activation based on the Ca^2+ signal after addition of Lys-Des-Arg^9-bradykinin (>=50 nM) or Des-Arg^9-bradykinin (10 μM). After incubation for 10-20 minutes, Lys-Des-Arg^9-bradykinin (hB1R) or Des-Arg^9-bradykinin (rB1R) in the concentration of the EC80 is applied and the inflow of Ca^2+ is likewise determined. Antagonists lead to a suppression of the Ca^2+ inflow. % inhibition compared with the maximum achievable inhibition is calculated.
(§7) In order to determine the IC50 value, the substances are added in various concentrations. […]

[2] = molecular target: T2, B1R receptor of the rat (rB1R) (Rattus norvegicus, UniProt P97583); assay: Functional investigation on the bradykinin receptor 1 (B1R), FLIPR Ca2+ assay, rB1R cells; type: cell-based
T2 construct: expressed in transfected cells; host or cells: CHO K1 cells
T2 sequence (P97583 1-337): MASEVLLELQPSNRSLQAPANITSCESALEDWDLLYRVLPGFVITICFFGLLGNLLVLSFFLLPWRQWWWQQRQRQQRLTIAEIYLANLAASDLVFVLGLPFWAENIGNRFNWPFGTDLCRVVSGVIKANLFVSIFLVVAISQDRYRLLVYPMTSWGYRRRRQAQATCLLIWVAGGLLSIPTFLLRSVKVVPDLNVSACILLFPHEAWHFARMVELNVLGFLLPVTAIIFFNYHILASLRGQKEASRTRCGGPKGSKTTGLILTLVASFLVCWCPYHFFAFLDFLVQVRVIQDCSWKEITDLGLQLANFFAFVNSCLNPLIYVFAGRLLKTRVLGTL
Method: as §1, §2, §3, §4, §5, §6, §7

| Structure (SMILES) | inhibition at 10 µM [1] [%] | inhibition at 10 µM [2] [%] |
| --- | --- | --- |
| COc1cc(C)c(S(=O)(=O)N(C)C(C)c2nc3cccc(C(=O)N4CCC5(CCN(Cc6c(F)cccc6Cl)CC5)CC4)c3[nH]2)c(C)c1 (stereo not drawn) [I_CC-40, N-[1-[7-[9-[(2-Chloro-6-fluoro-phenyl)-methyl]-3,9-diazaspiro[5.5]undecane-3-carbonyl]-1H-benzoimidazol-2-yl]-ethyl]-4-methoxy-N,2,6-trimethyl-benzenesulfonic acid amide] | 49 | 99 |
| COc1cc(C)c(C(=O)N(C)Cc2nc3cccc(C(=O)N4CCC5(CC4)CCN(c4ccncc4)C5)c3[nH]2)c(C)c1 [I_CC-24, 4-methoxy-N,2,6-trimethyl-N-[[7-(3-pyridin-4-yl-3,8-diazaspiro[4.5]decane-8-carbonyl)-1H-benzoimidazol-2-yl]-methyl]-benzamide] | 98 | 101 |
| COc1cc(C)c(S(=O)(=O)N(C)C(C)c2nc3cccc(C(=O)N4CCC5(CCN(C(=O)c6ccc(C#N)cc6)CC5)CC4)c3[nH]2)c(C)c1 (stereo not drawn) [I_CC-49, N-[1-[7-[9-(4-Cyano-benzoyl)-3,9-diazaspiro[5.5]undecane-3-carbonyl]-1H-benzoimidazol-2-yl]-ethyl]-4-methoxy-N,2,6-trimethyl-benzenesulfonic acid amide] | 72 | 87 |
| COc1cc(C)c(S(=O)(=O)N(C)Cc2nc3cccc(C(=O)N4CCC5(CC4)CCN(c4ccncc4)CC5)c3[nH]2)c(C)c1 [I_CC-03, 4-methoxy-N,2,6-trimethyl-N-[[7-(3-pyridin-4-yl-3,9-diazaspiro[5.5]undecane-9-carbonyl)-1H-benzoimidazol-2-yl]-methyl]-benzenesulfonic acid amide] | 100 | 100 |
| COc1cc(C)c(S(=O)(=O)N(C)C(C)c2nc3cccc(C(=O)N4CCC5(CCN(C(=O)c6cnccn6)CC5)CC4)c3[nH]2)c(C)c1 (stereo not drawn) [I_CC-47, 4-Methoxy-N,2,6-trimethyl-N-[1-[7-[9-(pyrazine-2-carbonyl)-3,9-diazaspiro[5.5]undecane-3-carbonyl]-1H-benzoimidazol-2-yl]-ethyl]-benzenesulfonic acid amide] | 58 | 90 |
| COc1cc(C)c(S(=O)(=O)N(C)Cc2nc3cccc(C(=O)N4CCC5(CC4)CC(c4ccncc4)=NO5)c3[nH]2)c(C)c1 [I_27, 4-methoxy-N,2,6-trimethyl-N-[[7-(3-pyridin-4-yl-1-oxa-2,8-diazaspiro[4.5]dec-2-ene-8-carbonyl)-1H-benzoimidazol-2-yl]-methyl]-benzenesulfonic acid amide] | 93 | 94 |
| COc1cc(C)c(S(=O)(=O)N(C)C(C)c2nc3cccc(C(=O)N4CCC5(CC4)CCN(S(=O)(=O)c4ccc(Cl)s4)CC5)c3[nH]2)c(C)c1 (stereo not drawn) [I_CC-56, N-[1-[7-[9-[(5-Chloro-thiophen-2-yl)sulfonyl]-3,9-diazaspiro[5.5]undecane-3-carbonyl]-1H-benzoimidazol-2-yl]-ethyl]-4-methoxy-N,2,6-trimethyl-benzenesulfonic acid amide] | 15 | 101 |
| COc1cc(C)c(S(=O)(=O)N(C)Cc2nc3cccc(C(=O)N4CCC5(CCC(N6CCC6)CC5)CC4)c3[nH]2)c(C)c1 [I_04, N-[[7-[9-(azetidin-1-yl)-3-azaspiro[5.5]undecane-3-carbonyl]-1H-benzoimidazol-2-yl]-methyl]-4-methoxy-N,2,6-trimethyl-benzenesulfonic acid amide] | 99 | 97 |
| COc1cc(C)c(S(=O)(=O)N(C)C(C)c2nc3cccc(C(=O)N4CCC5(CCN(Cc6cccc(C#N)c6)CC5)CC4)c3[nH]2)c(C)c1 (stereo not drawn) [I_CC-44, N-[1-[7-[9-[(3-Cyano-phenyl)-methyl]-3,9-diazaspiro[5.5]undecane-3-carbonyl]-1H-benzoimidazol-2-yl]-ethyl]-4-methoxy-N,2,6-trimethyl-benzenesulfonic acid amide] | 84 | 101 |
| Cc1ccc(Cl)c(S(=O)(=O)N(C)Cc2nc3cccc(C(=O)N4CCC5(CC4)CCN(c4ccncc4)CC5)c3[nH]2)c1Cl [I_17, 2,6-dichloro-N,3-dimethyl-N-[[7-(9-pyridin-4-yl-3,9-diazaspiro[5.5]undecane-3-carbonyl)-1H-benzoimidazol-2-yl]-methyl]-benzenesulfonic acid amide] | 95 | 24 |
| COc1cc(C)c(S(=O)(=O)N(C)C(C)c2nc3cccc(C(=O)N4CCC5(CCN(Cc6c[nH]cn6)CC5)CC4)c3[nH]2)c(C)c1 (stereo not drawn) [I_CC-25, N-[1-[7-[9-(1H-Imidazol-4-yl-methyl)-3,9-diazaspiro[5.5]undecane-3-carbonyl]-1H-benzoimidazol-2-yl]-ethyl]-4-methoxy-N,2,6-trimethyl-benzenesulfonic acid amide] | 58 | 103 |
| COc1cc(C)c(S(=O)(=O)N(C)C(C)c2nc3cccc(C(=O)N4CCC5(CCN(Cc6cnn(C)c6C)CC5)CC4)c3[nH]2)c(C)c1 (stereo not drawn) [I_CC-41, N-[1-[7-[9-[(1,5-Dimethyl-1H-pyrazol-4-yl)-methyl]-3,9-diazaspiro[5.5]undecane-3-carbonyl]-1H-benzoimidazol-2-yl]-ethyl]-4-methoxy-N,2,6-trimethyl-benzenesulfonic acid amide] | 83 | 98 |
| COc1cc(C)c(S(=O)(=O)N(C)C(C)c2nc3cccc(C(=O)N4CCC5(CCN(C(=O)c6ccc(F)cc6F)CC5)CC4)c3[nH]2)c(C)c1 (stereo not drawn) [I_CC-53, N-[1-[7-[9-(2,4-Difluoro-benzoyl)-3,9-diazaspiro[5.5]undecane-3-carbonyl]-1H-benzoimidazol-2-yl]-ethyl]-4-methoxy-N,2,6-trimethyl-benzenesulfonic acid amide] | 85 | 88 |
| COc1cc(C)c(S(=O)(=O)N(C)C(C)c2nc3cccc(C(=O)N4CCC5(CC4)CCN(S(=O)(=O)c4cccc6c4ccn6C)CC5)c3[nH]2)c(C)c1 (stereo not drawn) [I_CC-60, 4-Methoxy-N,2,6-trimethyl-N-[1-[7-[9-[(1-methyl-1H-indol-4-yl)sulfonyl]-3,9-diazaspiro[5.5]undecane-3-carbonyl]-1H-benzoimidazol-2-yl]-ethyl]-benzenesulfonic acid amide] |  | 101 |
